Test results taken from patent US20210309666A1, “SMALL MOLECULE MDM2 PROTEIN DEGRADERS” (THE REGENTS OF THE UNIVERSITY OF MICHIGAN, priority 2018, published 2021).
Like-named read-outs stand apart in the source and are kept apart here.

What was measured:
p53 protein [1] = test: Western blot analysis in 22RV1 cells, p53; type: cell-based, human; settings: 2 hr treatment
Method: (§1) 22RV1 cells were treated with Cpd. No. 4 and Cpd. D (MDM2 degraders) or with Cpd. A (MDM2 inhibitor) for 2 hr. MDM2 and p53 proteins were probed using specific antibodies. GAPDH was used as the loading control. […] No. 4 and Cpd. D reduce MDM2 protein and increase p53 protein level, and that Cpd. A increases MDM2 and p53 protein levels in 22RV1 cells.

22RV1 cells = test: Cell growth inhibition, 4-day proliferation assay (WST-8); type: cell-based; settings: Homo sapiens, 96 h; 22RV1, prostate carcinoma, 4 days
Method: (§2) The effect of representative Compounds of the Disclosure on cell viability was determined in a 4-day proliferation assay. Cells were maintained in the appropriate culture medium with 10% FBS at 37° C. and an atmosphere of 5% CO2. Also, the effect of a MDM2 inhibitor (Cpd. A; see Compound Example No. 22 of U.S. Pat. No. 8,629,141) and a known MDM2 degrader (Cpd. D, see Cpd. No. 175 of WO 2017/0176957) on cell viability in various cell lines is also included in Table 5. Cpd. […] A and D. The structure of Cpd. A is:
(§3) Cells were seeded in 96-well flat bottom (Corning COSTAR, Corning, N.Y., cat #3595) at a density of 2,000-3,000 cells/well in 100 μL of culture medium. Compounds were serially diluted in the appropriate medium, and 100 μL of the diluted compounds were added to the appropriate wells of the cell plate. After the addition of compounds, the cells were incubated at 37° C. in an atmosphere of 5% CO2 for 4 days. Cell viability was determined using the WST (2-(2-methoxy-4-nitrophenyl)-3-(4-nitrophenyl)-5-(2,4-disulfophenyl)-2H-tetrazolium, monosodium salt) Cell Counting-8 Kit (Dojindo Molecular Technologies, Inc., Rockville, Md.) according to the manufacturers' instructions.
(§4) WST-8 reagent was added to each well at a final concentration of 10% (v/v), and then the plates were incubated at 37° C. for 1-2 hours for color development. The absorbance was measured at 450 nm using a SPECTRAmax PLUS plate reader (Molecular Devices, Sunnyvale, Calif.). The readings were normalized to the DMSO-treated cells and the half maximal inhibitory concentration (IC50) was calculated by nonlinear regression (four parameters sigmoid fitted with variable slope, least squares fit, and no constraint) analysis using the GraphPad Prism 5 software (GraphPad Software, La Jolla, Calif.).

RS4;11 cells = test: as above; type: cell-based; settings: Homo sapiens, 96 h; RS4; 11, precursor cell lymphoblastic leukemia, 4 days; read-out: IC50
Method: as §2, §3, §4

MDM2 protein [2] = target: T1, MDM2 protein (Homo sapiens, UniProt Q00987); test: Western blot analysis in 22RV1 cells, MDM2; type: cell-based; parameters: endogenous in cells; settings: 2 hr treatment
T1 sequence (Q00987 whole entry): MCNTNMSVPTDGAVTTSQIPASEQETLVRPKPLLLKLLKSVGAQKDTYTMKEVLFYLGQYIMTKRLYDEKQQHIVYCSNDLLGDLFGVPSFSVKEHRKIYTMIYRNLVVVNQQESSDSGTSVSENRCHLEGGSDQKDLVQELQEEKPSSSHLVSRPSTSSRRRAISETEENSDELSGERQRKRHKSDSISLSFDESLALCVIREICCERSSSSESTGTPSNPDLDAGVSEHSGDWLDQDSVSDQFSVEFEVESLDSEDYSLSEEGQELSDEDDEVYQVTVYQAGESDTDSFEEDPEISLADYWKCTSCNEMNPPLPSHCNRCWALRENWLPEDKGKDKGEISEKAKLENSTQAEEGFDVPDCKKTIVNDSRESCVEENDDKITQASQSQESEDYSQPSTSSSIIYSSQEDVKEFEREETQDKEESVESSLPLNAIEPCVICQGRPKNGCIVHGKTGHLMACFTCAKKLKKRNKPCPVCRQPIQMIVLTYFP
Method: as §1

p53 protein [3] = test: Western blot analysis in RS4;11 cells, p53; type: cell-based, human; settings: 2 hr treatment
Method: (§5) RS4;11 cells were treated with Cpd. No. 4 and Cpd. No. 6 (MDM2 degraders) or with Cpd. B and Cpd. C (MDM2 inhibitors) for 2 hr. MDM2 and p53 proteins were probed using specific antibodies. GAPDH was used as the loading control. […] No. 4 and Cpd. No. 6 reduce MDM2 protein and increase p53 protein level, and that Cpd. B and Cpd. C increase MDM2 and p53 protein levels in RS4;11 cells. The structures of Cpd. B (see Compound Example No. 24 of U.S. Pat. No. 8,629,141) and Cpd.

MDM2 protein [4] = target: T1, MDM2 protein; test: Western blot analysis in RS4;11 cells, MDM2; type: cell-based; parameters: No. 4 and Cpd; No. 6 (MDM2 degraders); endogenous in cells; host or cells: RS4;11; settings: 2 hr treatment
Method: as §5

[5] = Separate PK experiment, plasma concentrations after oral dose; type: in vivo; settings: mouse, 50 mg/kg, mice
Text: In a separate PK experiment, the plasma concentrations of Cpd.

MOLM-14 cells = test: Cell growth inhibition, 4-day proliferation assay (WST-8); type: cell-based; settings: Homo sapiens, 96 h; MOLM-14, acute myeloid leukemia, 4 days
Method: as §2, §3, §4

MV-4;11 cells = test: as above; type: cell-based; settings: Homo sapiens, MV4-11, 96 h, 11, acute biphenotypic B myelomonocytic leukemia, 4 days
Method: as §2, §3, §4

LNCaP cells = test: as above; type: cell-based; settings: Homo sapiens, 96 h, prostate carcinoma, 4 days
Method: as §2, §3, §4

OCI-AML-5 cells = test: as above; type: cell-based; settings: Homo sapiens, 96 h; OCI-AML-5, acute myeloid leukemia, 4 days
Method: as §2, §3, §4

HCT116 cells = test: as above; type: cell-based; settings: Homo sapiens, HCT-116, 96 h; HCT116, colorectal carcinoma, 4 days
Method: as §2, §3, §4

ML-2 cells = test: as above; type: cell-based; settings: Homo sapiens, 96 h; ML-2, acute myeloid leukemia, 4 days
Method: as §2, §3, §4

MOLM-13 cells = test: as above; type: cell-based; settings: Homo sapiens, 96 h; MOLM-13, acute myeloid leukemia, 4 days
Method: as §2, §3, §4

SIG-M5 cells = test: as above; type: cell-based; settings: Homo sapiens, 96 h; SIG-M5, acute myeloid leukemia, 4 days
Method: as §2, §3, §4

OCI-AML-2 cells = test: as above; type: cell-based; settings: Homo sapiens, OCI-AML2, 96 h; OCI-AML-2, acute myeloid leukemia, 4 days
Method: as §2, §3, §4

[6] = Pharmacokinetics in mice, oral and IV; type: in vivo; settings: for F: PO 50 mg/kg vs IV 10 mg/kg; for AUC: mouse, in vivo
Method: The pharmacokinetics of Cpd. Nos. 4 and 6, and Cpd. D were evaluated in mice.

[7] = read-out: Plasma concentration, Average / Mean
[8] = read-out: Plasma concentration, Mouse 1
[9] = read-out: Plasma concentration, Mouse 2

Row | SMILES | p53 protein level (p53 protein [1]) | IC50 (22RV1 cells) | IC50 (RS4;11 cells) | MDM2 protein level (MDM2 protein [2]) | p53 protein level (p53 protein [3]) | MDM2 protein level (MDM2 protein [4]) | concentration at 1 h [5, 7] | concentration at 1 h [5, 8] | concentration at 1 h [5, 9] | concentration at 3 h [5, 7] | concentration at 3 h [5, 8] | concentration at 3 h [5, 9] | concentration at 6 h [5, 7] | concentration at 6 h [5, 8] | concentration at 6 h [5, 9] | IC50 (MOLM-14 cells) | IC50 (MV-4;11 cells) | IC50 (LNCaP cells) | IC50 (OCI-AML-5 cells) | IC50 (HCT116 cells) | other results
1 | O=C(O)c1ccc(NC(=O)[C@@H]2NC3(CCCCC3)[C@@]3(C(=O)Nc4cc(Cl)ccc43)[C@H]2c2cccc(Cl)c2F)cc1 [Cpd. A, reference compound] | increases | 1330 nM | 138 nM | increases |  |  |  |  |  |  |  |  |  |  |  |  |  |  |  |  | 
2 | O=C(N[C@H]1CC[C@H](C(=O)O)CC1)[C@@H]1NC2(CCCCC2)[C@@]2(C(=O)Nc3cc(Cl)ccc32)[C@H]1c1cccc(Cl)c1F [Cpd. B, reference compound] |  |  |  |  | increase | increase |  |  |  |  |  |  |  |  |  |  |  |  |  |  | 
3 | O=C(NC12CCC(C(=O)O)(CC1)CC2)[C@@H]1NC2(CCCCC2)[C@@]2(C(=O)Nc3cc(Cl)ccc32)[C@H]1c1cccc(Cl)c1F [Cpd. C, reference compound] |  |  |  |  | increase | increase |  |  |  |  |  |  |  |  |  |  |  |  |  |  | 
4 | O=C1CCC(N2Cc3c(C#CC4CCN(C(=O)c5ccc(NC(=O)[C@@H]6NC7(CCCCC7)[C@@]7(C(=O)Nc8cc(Cl)ccc87)[C@H]6c6cccc(Cl)c6F)cc5)CC4)cccc3C2=O)C(=O)N1 (stereo partly shown) [Cpd. D, reference compound] | increase | 45 nM | 2.9 nM | reduce |  |  | 77.9 ng/mL | 78 ng/mL | 77.8 ng/mL | 624 ng/mL | 510 ng/mL | 738 ng/mL | 414 ng/mL | 234 ng/mL | 594 ng/mL | 78 nM | 10 nM | 33 nM | 150 nM | 400 nM | IC50 (ML-2 cells): 11 nM; IC50 (MOLM-13 cells): 34 nM; IC50 (SIG-M5 cells): 110 nM; IC50 (OCI-AML-2 cells): 110 nM; F [6]: 1.27%; AUC ([6]; IV, 10 mg/kg): 193000 ng·h/mL; AUC ([6]; PO, 50 mg/kg): 12300 ng·h/mL
5 | O=C1CCC(N2Cc3c(C#CC4CCN(C(=O)[C@H]5CC[C@H](NC(=O)[C@@H]6NC7(CCCCC7)[C@@]7(C(=O)Nc8cc(Cl)ccc87)[C@H]6c6cccc(Cl)c6F)CC5)CC4)cccc3C2=O)C(=O)N1 (stereo partly drawn) [Cpd. No. 4, (3′R,4′S,5′R)-6″-chloro-4′-(3-chloro-2-fluorophenyl)-N-((1r,4R)-4-(4-((2-(2,6-dioxopiperidin-3-yl)-1-oxoisoindolin-4-yl)ethynyl)piperidine-1-carbonyl)cyclohexyl)-2″-oxodispiro[cyclohexane-1,2′-pyrrolidine-3′,3″-indoline]-5′-carboxamide] | increase | 14 nM | 0.72 nM | reduce | increase | reduce | 0.62 ng/mL | 0.231 ng/mL | 1.01 ng/mL | 1320 ng/mL | 902 ng/mL | 1730 ng/mL | 338 ng/mL | 231 ng/mL | 446 ng/mL | 7.8 nM | 2.3 nM | 3.2 nM | 23 nM | 86 nM | IC50 (ML-2 cells): 1.2 nM; IC50 (MOLM-13 cells): 5.1 nM; IC50 (SIG-M5 cells): 21 nM; IC50 (OCI-AML-2 cells): 21 nM; F [6]: 0.93%; AUC ([6]; IV, 10 mg/kg): 156000 ng·h/mL; AUC ([6]; PO, 50 mg/kg): 7250 ng·h/mL
6 | O=C1CCC(N2Cc3c(C#CC4CCN(C(=O)C56CCC(NC(=O)[C@@H]7NC8(CCCCC8)[C@@]8(C(=O)Nc9cc(Cl)ccc98)[C@H]7c7cccc(Cl)c7F)(CC5)CC6)CC4)cccc3C2=O)C(=O)N1 (stereo partly drawn) [Cpd. No. 6, (3′R,4′S,5′R)-6″-chloro-4′-(3-chloro-2-fluorophenyl)-N-(4-(4-((2-(2,6-dioxopiperidin-3-yl)-1-oxoisoindolin-4-yl)ethynyl)piperidine-1-carbonyl)bicyclo[2.2.2]octan-1-yl)-2″-oxodispiro[cyclohexane-1,2′-pyrrolidine-3′,3″-indoline]-5′-carboxamide] |  | 42 nM | 2.4 nM |  | increase | reduce | 0.42 ng/mL | 0.576 ng/mL | 0.257 ng/mL | 3220 ng/mL | 3110 ng/mL | 3330 ng/mL | 2380 ng/mL | 2320 ng/mL | 2430 ng/mL | 25 nM | 6.4 nM | 13 nM | 71 nM | 310 nM | IC50 (ML-2 cells): 4.9 nM; IC50 (MOLM-13 cells): 18 nM; IC50 (SIG-M5 cells): 63 nM; IC50 (OCI-AML-2 cells): 69 nM; F [6]: 5.7%; AUC ([6]; IV, 10 mg/kg): 154000 ng·h/mL; AUC ([6]; PO, 50 mg/kg): 43500 ng·h/mL
